Assay results: patent US7175872B2, “Pyridinium-Betain compounds for use as taste modulators” (Nestec S.A., priority 2002, dated 2007)
Structures can show the parent of a compound that is named as a salt.

Legend:
Type in all cases: in vivo
sweet taste of glucose = assay: Iso-intensity: relative sweetness of glucose/Alapyridaine mixtures
Description: • Sensory panel training: […] Sensory analyses were performed in a sensory panel room at 22-25° C. on three different sessions. • Taste thresholds: The taste thresholds of the tastants or mixtures containing basic tastants plus Pyridinium-Betains were determined in a triangle test using Evian® mineral water as the solvent at a defined pH ([…] and H.-D. Belitz, Z. Lebensm. Unters. Forsch. 1975, 159, 65-72). The samples (3 mL) were presented in order of increasing concentrations (serial 1:1 dilutions). The threshold values evaluated in two different sessions were averaged. […] The taste intensities of aqueous (Evian®) solutions containing a basic tastant, such as glucose and MSG, for example, in constant concentrations and the compounds of the general formula (A), for example […], in various concentrations were compared with those of a solution containing the basic tastant only. […] The relative taste strength (taste enhancing factor) of a mixture containing the basic […] was related to the basic tastants glucose, MSG, or other tastants, respectively, as standard substances, and was determined as the ratio of the concentrations c of iso-intensely tasting solutions of the basic tastant, such as glucose (glc), and the mixture containing tastant plus Pyridinium-Betain, […])=[…] […]

umami taste of MSG = assay: Umami taste detection threshold of MSG/Pyridinium-Betaine mixtures (triangle test, sensory panel); conditions: equimolar mixture with MSG; for Threshold decrease: vs MSG in water 1.5 mmol/L
Description: • Sensory panel training: […] Sensory analyses were performed in a sensory panel room at 22-25° C. on three different sessions. • Taste thresholds: The taste thresholds of the tastants or mixtures containing basic tastants plus Pyridinium-Betains were determined in a triangle test using Evian® mineral water as the solvent at a defined pH ([…] and H.-D. Belitz, Z. Lebensm. Unters. Forsch. 1975, 159, 65-72). The samples (3 mL) were presented in order of increasing concentrations (serial 1:1 dilutions). The threshold values evaluated in two different sessions were averaged. […] The taste intensities of aqueous (Evian®) solutions containing a basic tastant, such as glucose and MSG, for example, in constant concentrations and the compounds of the general formula (A), for example […], in various concentrations were compared with those of a solution containing the basic tastant only. To achieve this, triangle tests were performed with two glass vials containing the basic tastant in constant concentrations, and one glass vial containing a stepwise 1:1-diluted mixture of basic […]. […] The relative taste strength (taste enhancing factor) of a mixture containing the basic […] was related to the basic tastants glucose, MSG, or other tastants, respectively, as standard substances, and was determined as the ratio of the concentrations c of iso-intensely tasting solutions of the basic tastant, such as glucose (glc), and the mixture containing tastant plus Pyridinium-Betain, […])=[…] […] This taste enhancing effect is illustrated in examples. Pyridinium-Betaines not only enhance the sweet taste perception, but also the umami taste.

beef taste recombinate = assay: Effect of Alapyridaine on the taste profile of a beef broth taste recombinate; conditions: pH 5
Source text: The beef taste recombinate (K. Shima et al., J. Agric. Food. Chem. 1998, 46, 1465–1468) consisting of 16 amino acids, 4 sugars, three 5′-nucleotides, 3 carbonic acids, 3 salts, and 4 other compounds was used as a sample having a basic brothy taste at pH 5, i.e. (in mg/L water) threonine (68), serine (38), MSG (64), proline (16), glycine (56), alanine (192), valine (34), methionine (20), isoleucine (16), leucine (28), tyrosine (38), phenylalanine (26), lysine hydrochloride (44), histidine (38), arginine (32), taurine (248), ribose (4), mannose (8), fructose (20), glucose (40), IMP.2Na.5H20 (424), GMP.2Na7H20 (80), AMP (60), pyroglutamic acid (1296), lactic acid (3567), succinic acid (98), NaCl (854), KCl (3940), MgCl2.6H20 (1104), CaCl2.2H20 (14), H3PO4, carnosine (912), creatine (1106), and creatinine (572) were dissolved in 1 L of water, and the pH was adjusted to 5.0.
The sensory panel was asked to score the given taste qualities of the biomimetic beef taste recombinate on a scale from 0 (not detectable) to 5 (strong). To study the influence of Alapyridaine on the taste qualities of that recombinate, a triangle test was performed with two glass vials containing the pure beef taste recombinate, and one glass vial containing the beef taste recombinate plus a known amount of Alapyridaine. […]

CC(C(=O)[O-])[n+]1cc(O)ccc1CO (stereo not shown) [Alapyridaine, N-(1-carboxyethyl)-3-hydroxy-6-hydroxymethyl-pyridinium inner salt]
relative sweetness (iso-intensity) (sweet taste of glucose; 80 mmol/kg glucose and 125 mmol/kg Alapyridaine vs 80 mmol/kg glucose): 8 -fold | maximum relative sweetness (iso-intensity) (sweet taste of glucose; 267 mmol/kg glucose and 125 mmol/kg Alapyridaine vs reference solution 267 mmol/kg glucose): 5.3 -fold | Taste quality (umami taste of MSG; pH 5.0): umami | Umami detection threshold (umami taste of MSG; pH 5.0): 0.4 mmol/kg water | Threshold decrease (umami taste of MSG; pH 5.0): 4.0 | Taste quality (umami taste of MSG; pH 7.0): umami | Umami detection threshold (umami taste of MSG; pH 7.0): 0.4 mmol/kg water | Threshold decrease (umami taste of MSG; pH 7.0): 4.0 | Taste quality (umami taste of MSG; pH 9.0): umami | Umami detection threshold (umami taste of MSG; pH 9.0): 0.4 mmol/kg water | Threshold decrease (umami taste of MSG; pH 9.0): 4.0 | effect on taste profile of beef taste recombinate (beef taste recombinate; 0.5 mg/L Alapyridaine added): increased the umami character and decreased the sour note | effect on taste profile of beef taste recombinate (beef taste recombinate; 5 mg/L Alapyridaine added): more intense umami, sweet and salty taste and a reduced sourness
